# In PubChem BioAssay (NCI):
# Several values for one entry are separate records, joined by “and”; a condition that tells them apart may be missing. Identical values can stand only once.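 48-hour exposure; five concentrations; linearly interpolated endpoints. Abbreviation: GI50, concentration required for 50% inhibition of growth. TGI: concentration producing complete growth inhibition.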
# Experiments:
# Assay in all cases: NCI anticancer screen, dose series, 48 h
# KM12 colon = system: KM12 colon
# SF-539 CNS = system: SF-539 CNS
# HCC-2998 colon = system: HCC-2998 colon
# EKVX NSCLC = system: EKVX NSCLC
# RXF 393 renal = system: RXF 393 renal
# M19-MEL melanoma = system: M19-MEL melanoma
# OVCAR-3 ovarian = system: OVCAR-3 ovarian
# COLO 205 colon = system: COLO 205 colon
# UACC-257 melanoma = system: UACC-257 melanoma
# U251 CNS = system: U251 CNS
SMILES,TGI (KM12 colon),TGI (SF-539 CNS),TGI (HCC-2998 colon),TGI (EKVX NSCLC),TGI (RXF 393 renal),TGI (M19-MEL melanoma),TGI (OVCAR-3 ovarian),TGI (COLO 205 colon),TGI (UACC-257 melanoma),TGI (U251 CNS),GI50 (KM12 colon),GI50 (SF-539 CNS),GI50 (HCC-2998 colon),GI50 (EKVX NSCLC),GI50 (M19-MEL melanoma),GI50 (OVCAR-3 ovarian),GI50 (COLO 205 colon),GI50 (UACC-257 melanoma),GI50 (U251 CNS),GI50 (RXF 393 renal)
Cc1nnc(N/N=C(/C(=O)C(C#N)c2ccccc2)C(C#N)c2ccccc2)n1N (stereo unspecified),> 55.4 µM,> 65.2 µM,11 µM,> 100 µM,24.1 µM,25.2 µM,53.3 µM,14 µM,13.2 µM,> 83.1 µM,,,,,,,,,,
CC/C(=N\NS(=O)(=O)c1ccccc1)c1ccccc1,> 100 µM,> 100 µM,> 100 µM,> 100 µM,> 100 µM,> 100 µM,> 100 µM,> 100 µM,> 100 µM,> 100 µM,,,,,,,,,,
COC(=O)/C(C#N)=C1\CCC(C(=O)OC)N1C (stereo unspecified),> 100 µM,> 100 µM,> 100 µM,> 100 µM,> 100 µM,> 100 µM,> 100 µM,> 100 µM,> 100 µM,> 100 µM,,,,,,,,,,
CC(=O)OC1COC(n2c(=S)n(-c3ccccc3)c(=O)c3cc(Br)ccc32)C(OC(C)=O)C1OC(C)=O (stereo unspecified),> 100 µM,77.7 µM,> 100 µM,> 100 µM,66.6 µM,> 100 µM,> 100 µM,> 100 µM,> 100 µM,44.5 µM,,,,,,,,,,
Cc1ccc2nc3c(Cl)c(C)c(=O)cc-3sc2c1,> 100 µM,> 100 µM,> 100 µM,> 100 µM,> 100 µM,> 100 µM,> 100 µM,> 100 µM,> 100 µM,> 100 µM,78 µM,50.9 µM,> 100 µM,63.3 µM,46.4 µM,50.2 µM,> 100 µM,78.4 µM,45.1 µM,
COc1cccc(/C=C2\CCC(C)(CN(C)C)C2=O)c1 (stereo unspecified),> 100 µM,> 100 µM,> 100 µM,> 100 µM,> 100 µM,> 100 µM,> 100 µM,> 100 µM,> 100 µM,> 100 µM,,,,,,,,,,
CCOC(=O)c1ccc(N[C@@H]2c3cc4c(cc3C(C3=CC(=O)C(=O)C(OC)=C3)[C@H]3C(=O)OCC32)OCO4)cc1 (stereo partly specified),> 33.2 µM,4.56 µM,10.9 µM,26.3 µM,16.8 µM,36.4 µM,31.7 µM,28.3 µM,> 82.6 µM,4.77 µM,,,,,,,,,,
COC1OC(C)C(OCc2ccccc2)C(OS(=O)(=O)c2ccc(C)cc2)C1OS(=O)(=O)c1ccc(C)cc1 (stereo unspecified),> 100 µM,> 100 µM,> 100 µM,> 100 µM,> 100 µM,> 100 µM,> 100 µM,> 100 µM,> 100 µM,> 100 µM,,,,,,,,,,
CC1(C)OC2COC3(CNO)OC(C)(C)OC3C2O1 (stereo unspecified),> 100 µM,> 100 µM,> 100 µM,> 100 µM,> 100 µM,> 100 µM,> 100 µM,> 100 µM,> 100 µM,> 100 µM,,,,,,,,,,
C[n+]1c2ccccc2cc2c(CNC(CCCN=C(N)N)C(=O)O)cccc21 (stereo unspecified),1.72 µM and 1.57 µM,2.66 µM and 2.91 µM,5.67 µM and 16.7 µM,10.2 µM,1.34 µM and 4.78 µM,2.26 µM and 17 µM,6.36 µM and 4.58 µM,0.686 µM,3.9 µM,4.28 µM and 6.85 µM,,,5.14 µM,2.68 µM,4.23 µM,1.57 µM,,1.98 µM,2.12 µM,2.22 µM
CC1=C(C(=O)Nc2ccccc2C)C(/C=C/c2ccccc2)C(C(=O)Nc2ccccc2C)=C(C)N1,> 100 µM,> 100 µM,> 100 µM,> 100 µM,> 100 µM,> 100 µM,> 100 µM,> 100 µM,> 100 µM,> 100 µM,,,,,,,,,,
O=C/C(=C(/Cl)c1ccc(O)cc1)c1ccccc1,> 100 µM,> 57.1 µM,> 100 µM,> 75.7 µM,57.2 µM,42.1 µM,37.5 µM,46.9 µM,> 56.6 µM,> 56.5 µM,,,,,,,,,,
NC(N)=NS(=O)(=O)c1ccc(NC(=O)c2cccc3c(Nc4ccc(S(N)(=O)=O)cc4)c4ccccc4nc23)cc1,> 100 µM,> 100 µM,> 100 µM,> 100 µM,> 100 µM,> 100 µM,> 100 µM,> 100 µM,> 100 µM,> 100 µM,,,,,,,,,,
